Source: patent publication US5663162A, “Cephem derivatives” (priority 1993, dated 1997)
In brackets after ≈: the same amount, converted by molar mass. Like-named read-outs stand apart in the source and are kept apart here.

Assays:
Test in all cases: Antibacterial activity test, MIC by two-fold dilution method
[1] = test system: S. Aureus 126; assay type: cell-based, Staphylococcus aureus (methicillin-resistant, MRSA); details: Staphylococcus aureus, read-out: Minimum Inhibition Concentration
Protocol: (§1) The measurement was carried out in the following manner: 10^6 CFU/ml of a bacterium to be tested was inoculated on a Medium N for disc susceptibility test (manufactured by Nissui Pharmaceutical Co., Ltd.), and cultivated at 35° C. for 18 to 20 hours.

[2] = test system: S. Aureus 133; assay type: cell-based, Staphylococcus aureus (methicillin-resistant, MRSA); details: Staphylococcus aureus, read-out: Minimum Inhibition Concentration
Protocol: as §1

[3] = test system: K. pneumoniae PC1602; assay type: cell-based; details: Klebsiella pneumoniae
Protocol: as §1

[4] = test system: S. epidermidis ATCC14990; assay type: cell-based; details: Staphylococcus epidermidis
Protocol: as §1

[5] = test system: M. morganii 1510/S-1; assay type: cell-based; details: Morganella morganii
Protocol: as §1

[6] = test system: P. vulgaris GN76; assay type: cell-based; details: Proteus vulgaris
Protocol: as §1

[7] = test system: E. cloacae G-0008; assay type: cell-based; details: Enterobacter cloacae
Protocol: as §1

[8] = test system: P. aeruginosa GN10362; assay type: cell-based; details: Pseudomonas aeruginosa
Protocol: as §1

[9] = test system: C. freundii GN346/16; assay type: cell-based; details: Citrobacter freundii
Protocol: as §1

[10] = test system: S. marcescens No. 1; assay type: cell-based; details: Serratia marcescens
Protocol: as §1

[11] = test system: S. Aureus 209P JC-1; assay type: cell-based; details: Staphylococcus aureus, read-out: Minimum Inhibition Concentration
Protocol: as §1

[12] = test system: P. aeruginosa E-2; assay type: cell-based; details: Pseudomonas aeruginosa
Protocol: as §1

[13] = test system: E. coli NIHJ JC-2; assay type: cell-based; details: Escherichia coli
Protocol: as §1

[14] = S. Aureus 126 (MRSA), 10^6 CFU/ml, 35° C., 18 to 20 hours
[15] = K. pneumoniae PC1602, 10^6 CFU/ml, 35° C., 18 to 20 hours, read-out: Minimum Inhibition Concentration
[16] = S. epidermidis ATCC14990, 10^6 CFU/ml, 35° C., 18 to 20 hours, read-out: Minimum Inhibition Concentration
[17] = 1510/S1, M. morganii 1510/S-1, 10^6 CFU/ml, 35° C., 18 to 20 hours, read-out: Minimum Inhibition Concentration
[18] = GN76, read-out: Minimum Inhibition Concentration
[19] = G0008, E. cloacae G-0008, 10^6 CFU/ml, 35° C., 18 to 20 hours, read-out: Minimum Inhibition Concentration
[20] = P. aeruginosa GN10362, 10^6 CFU/ml, 35° C., 18 to 20 hours, read-out: Minimum Inhibition Concentration
[21] = C. freundii GN346/16, 10^6 CFU/ml, 35° C., 18 to 20 hours, read-out: Minimum Inhibition Concentration
[22] = S. marcescens No. 1, 10^6 CFU/ml, 35° C., 18 to 20 hours, read-out: Minimum Inhibition Concentration
[23] = S. Aureus 209P JC-1, 10^6 CFU/ml, 35° C., 18 to 20 hours
[24] = E2, P. aeruginosa E-2, 10^6 CFU/ml, 35° C., 18 to 20 hours, read-out: Minimum Inhibition Concentration
[25] = NIHJJC2, E. coli NIHJ JC-2, 10^6 CFU/ml, 35° C., 18 to 20 hours, read-out: Minimum Inhibition Concentration
[26] = P. vulgaris GN76, 10^6 CFU/ml, 35° C., 18 to 20 hours, read-out: Minimum Inhibition Concentration
[27] = ATCC14990, read-out: Minimum Inhibition Concentration
[28] = S. Aureus 133 (MRSA), 10^6 CFU/ml, 35° C., 18 to 20 hours
[29] = 1510/S1, read-out: Minimum Inhibition Concentration
[30] = GN10362, read-out: Minimum Inhibition Concentration
[31] = GN346, read-out: Minimum Inhibition Concentration
[32] = NO.1, read-out: Minimum Inhibition Concentration

SMILES	MIC [1, 14]	MIC ([2]; MRSA)	MIC [3, 15]	MIC [4, 16]	MIC [5, 17]	MIC [6, 18]	MIC [7, 19]	MIC [8, 20]	MIC [9, 21]	MIC [10, 22]	MIC [11, 23]	MIC [12, 24]	MIC [13, 25]	MIC [6, 26]	MIC [4, 27]	MIC ([11]; 209P)	MIC [2, 28]	also measured
CO/N=C(\C(=O)N[C@@H]1C(=O)N2C(C(=O)[O-])=C(C[n+]3cc4sccn4c3CO)CS[C@H]12)c1nsc(N)n1 [Example 31]	12.5 µg/mL (≈ 22.7 µM)	6.25 µg/mL (≈ 11.4 µM)	0.05 µg/mL (≈ 0.0908 µM)	0.78 µg/mL (≈ 1.42 µM)	0.05 µg/mL (≈ 0.0908 µM)	0.39 µg/mL (≈ 0.708 µM)	0.05 µg/mL (≈ 0.0908 µM)	3.13 µg/mL (≈ 5.68 µM)	0.1 µg/mL (≈ 0.182 µM)	0.05 µg/mL (≈ 0.0908 µM)	0.78 µg/mL (≈ 1.42 µM)	3.13 µg/mL (≈ 5.68 µM)	≤ 0.025 µg/mL	–	–	–	–	–
Nc1nc(/C(=N/OCF)C(=O)N[C@@H]2C(=O)N3C(C(=O)[O-])=C(C[n+]4cc5sccn5c4[C@H](CO)NC=O)CS[C@H]23)ns1 [Example 164, (6R,7R)-7-[(Z)-2-(5-amino-1,2,4-thiadiazol-3-yl)-2-fluoromethoxyiminoacetamido]-3-[5-((R)-1-formylamino-2-hydroxyethyl]imidazo[5,1-b]thiazolium-6-yl)methyl-3-cephem-4-carboxylate]	–	6.25 µg/mL (≈ 9.99 µM)	≤ 0.025 µg/mL	0.78 µg/mL (≈ 1.25 µM)	≤ 0.025 µg/mL	–	0.05 µg/mL (≈ 0.0799 µM)	0.78 µg/mL (≈ 1.25 µM)	≤ 0.025 µg/mL	≤ 0.025 µg/mL	0.78 µg/mL (≈ 1.25 µM)	0.78 µg/mL (≈ 1.25 µM)	≤ 0.025 µg/mL	0.2 µg/mL (≈ 0.32 µM)	–	–	–	MIC ([1]; MRSA): 6.25 µg/mL (≈ 9.99 µM)
Nc1nc(/C(=N/OCCF)C(=O)N[C@@H]2C(=O)N3C(C(=O)[O-])=C(C[n+]4cc5sccn5c4)CS[C@H]23)ns1 [Example 133, (6R,7R)-7-[(Z)-2-(5-Amino-1,2,4-thiadiazol-3-yl)-2-(2-fluoroethoxyimino)acetamide]3-cephem-4-carboxylate]	12.5 µg/mL (≈ 22.6 µM)	6.25 µg/mL (≈ 11.3 µM)	≤ 0.025 µg/mL	–	≤ 0.025 µg/mL	–	≤ 0.025 µg/mL	0.78 µg/mL (≈ 1.41 µM)	0.1 µg/mL (≈ 0.181 µM)	≤ 0.025 µg/mL	–	0.78 µg/mL (≈ 1.41 µM)	≤ 0.025 µg/mL	0.2 µg/mL (≈ 0.362 µM)	0.39 µg/mL (≈ 0.706 µM)	0.39 µg/mL (≈ 0.706 µM)	–	–
CO/N=C(\C(=O)N[C@@H]1C(=O)N2C(C(=O)[O-])=C(C[n+]3cccc4c3CCC4)CS[C@H]12)c1csc(N)n1 [CPR, Cefpirome, reference compound]	50 µg/mL (≈ 97.2 µM)	6.25 µg/mL (≈ 12.1 µM)	0.05 µg/mL (≈ 0.0972 µM)	–	≤ 0.025 µg/mL	–	0.05 µg/mL (≈ 0.0972 µM)	3.13 µg/mL (≈ 6.08 µM)	0.05 µg/mL (≈ 0.0972 µM)	≤ 0.025 µg/mL	0.2 µg/mL (≈ 0.389 µM)	3.13 µg/mL (≈ 6.08 µM)	0.05 µg/mL (≈ 0.0972 µM)	0.2 µg/mL (≈ 0.389 µM)	0.39 µg/mL (≈ 0.758 µM)	–	–	–
CC(C)(O/N=C(\C(=O)N[C@@H]1C(=O)N2C(C(=O)[O-])=C(C[n+]3ccccc3)CS[C@H]12)c1csc(N)n1)C(=O)O [CAZ, Ceftazidime, reference compound]	> 100 µg/mL	–	–	–	–	0.05 µg/mL (≈ 0.0915 µM)	–	–	–	–	–	–	–	–	6.25 µg/mL (≈ 11.4 µM)	6.25 µg/mL (≈ 11.4 µM)	100 µg/mL (≈ 183 µM)	MIC ([3]; PC1602, read-out: Minimum Inhibition Concentration): 0.1 µg/mL (≈ 0.183 µM); MIC [5, 29]: 0.2 µg/mL (≈ 0.366 µM); MIC ([7]; G0008, read-out: Minimum Inhibition Concentration): 0.2 µg/mL (≈ 0.366 µM); MIC [8, 30]: 1.56 µg/mL (≈ 2.85 µM); MIC [9, 31]: 0.39 µg/mL (≈ 0.714 µM); MIC [10, 32]: 0.05 µg/mL (≈ 0.0915 µM); MIC ([12]; E2, read-out: Minimum Inhibition Concentration): 1.56 µg/mL (≈ 2.85 µM); MIC ([13]; NIHJJC2, read-out: Minimum Inhibition Concentration): 0.39 µg/mL (≈ 0.714 µM)
Nc1nc(/C(=N/OC2CCCC2)C(=O)N[C@@H]2C(=O)N3C(C(=O)[O-])=C(C[n+]4cc5sccn5c4)CS[C@H]23)ns1 [Example 112, (6R,7R)-7-[(Z)-2-(5-Amino-1,2,4-thiadiazol-3-yl)-2-cyclopentyl-oxyiminoacetamide]-3-(imidazo[5,1-b]thiazolium-6-yl)methyl-3-cephem-4-carboxylate]	3.13 µg/mL (≈ 5.45 µM)	–	0.78 µg/mL (≈ 1.36 µM)	0.2 µg/mL (≈ 0.348 µM)	–	–	0.78 µg/mL (≈ 1.36 µM)	3.13 µg/mL (≈ 5.45 µM)	0.78 µg/mL (≈ 1.36 µM)	–	–	3.13 µg/mL (≈ 5.45 µM)	0.78 µg/mL (≈ 1.36 µM)	3.13 µg/mL (≈ 5.45 µM)	–	0.39 µg/mL (≈ 0.679 µM)	3.13 µg/mL (≈ 5.45 µM)	MIC [5, 29]: 0.39 µg/mL (≈ 0.679 µM); MIC [10, 32]: 1.56 µg/mL (≈ 2.71 µM)
CO/N=C(\C(=O)N[C@@H]1C(=O)N2C(C(=O)[O-])=C(C[n+]3cc4sccn4c3)CS[C@H]12)c1nsc(N)n1 [Example 30, (6R,7R)-7-[(Z)-2-(5-Amino-1,2,4-thiadiazol-3-yl)-2-methoxyiminoacetamide]-3-(imidazo [5, l-b]thiazolium-6-yl)methyl-3-cephem-4-carboxylate]	25 µg/mL (≈ 48 µM)	–	0.05 µg/mL (≈ 0.096 µM)	–	0.1 µg/mL (≈ 0.192 µM)	0.39 µg/mL (≈ 0.749 µM)	0.05 µg/mL (≈ 0.096 µM)	–	0.1 µg/mL (≈ 0.192 µM)	0.05 µg/mL (≈ 0.096 µM)	–	3.13 µg/mL (≈ 6.01 µM)	0.05 µg/mL (≈ 0.096 µM)	–	0.39 µg/mL (≈ 0.749 µM)	0.39 µg/mL (≈ 0.749 µM)	12.5 µg/mL (≈ 24 µM)	MIC [8, 30]: 1.56 µg/mL (≈ 3 µM)
C[C@H](O/N=C(\C(=O)N[C@@H]1C(=O)N2C(C(=O)[O-])=C(C[n+]3cc4sccn4c3)CS[C@H]12)c1csc(N)n1)C(=O)O [Example 2, (6R,7R)-7-[(Z)-2-(2-Aminothiazol-4-yl)-2-((S)-l-carboxyethoxy-imino)acetamide]-3-(imidazo[5,1-b]thiazolium-6-yl)methyl-3-cephem-4-carboxylate]	> 100 µg/mL	–	≤ 0.025 µg/mL	–	≤ 0.025 µg/mL	–	0.05 µg/mL (≈ 0.0866 µM)	0.78 µg/mL (≈ 1.35 µM)	–	≤ 0.025 µg/mL	–	0.78 µg/mL (≈ 1.35 µM)	0.05 µg/mL (≈ 0.0866 µM)	≤ 0.025 µg/mL	6.25 µg/mL (≈ 10.8 µM)	6.25 µg/mL (≈ 10.8 µM)	100 µg/mL (≈ 173 µM)	MIC [9, 31]: 0.39 µg/mL (≈ 0.675 µM)
NC(=O)c1csc2c[n+](CC3=C(C(=O)[O-])N4C(=O)[C@@H](NC(=O)/C(=N\OCCF)c5nsc(N)n5)[C@H]4SC3)cn12 [Example 48, (6R,7R)-7-[(Z)-2-(5-Amino-2,4-thiadiazol-3-yl)-2-(2-fluoroethoxyimino)acetamide]-3-(3-carbamoylimidazo[5,1-b]thiazolium-6-yl)methyl-3-cephem-4-carboxylate]	12.5 µg/mL (≈ 21 µM)	6.25 µg/mL (≈ 10.5 µM)	≤ 0.025 µg/mL	–	≤ 0.025 µg/mL	–	≤ 0.025 µg/mL	0.78 µg/mL (≈ 1.31 µM)	0.1 µg/mL (≈ 0.168 µM)	≤ 0.025 µg/mL	–	0.78 µg/mL (≈ 1.31 µM)	≤ 0.025 µg/mL	0.2 µg/mL (≈ 0.336 µM)	0.39 µg/mL (≈ 0.655 µM)	0.39 µg/mL (≈ 0.655 µM)	–	–
